Tests used:
SHIP2 = biological target: T1, SHIP2 (Homo sapiens, UniProt O15357); experiment: Malachite Green phosphate release assay, SHIP2; type: biochemical; settings: at 1 mM
T1 sequence (O15357 1-1258): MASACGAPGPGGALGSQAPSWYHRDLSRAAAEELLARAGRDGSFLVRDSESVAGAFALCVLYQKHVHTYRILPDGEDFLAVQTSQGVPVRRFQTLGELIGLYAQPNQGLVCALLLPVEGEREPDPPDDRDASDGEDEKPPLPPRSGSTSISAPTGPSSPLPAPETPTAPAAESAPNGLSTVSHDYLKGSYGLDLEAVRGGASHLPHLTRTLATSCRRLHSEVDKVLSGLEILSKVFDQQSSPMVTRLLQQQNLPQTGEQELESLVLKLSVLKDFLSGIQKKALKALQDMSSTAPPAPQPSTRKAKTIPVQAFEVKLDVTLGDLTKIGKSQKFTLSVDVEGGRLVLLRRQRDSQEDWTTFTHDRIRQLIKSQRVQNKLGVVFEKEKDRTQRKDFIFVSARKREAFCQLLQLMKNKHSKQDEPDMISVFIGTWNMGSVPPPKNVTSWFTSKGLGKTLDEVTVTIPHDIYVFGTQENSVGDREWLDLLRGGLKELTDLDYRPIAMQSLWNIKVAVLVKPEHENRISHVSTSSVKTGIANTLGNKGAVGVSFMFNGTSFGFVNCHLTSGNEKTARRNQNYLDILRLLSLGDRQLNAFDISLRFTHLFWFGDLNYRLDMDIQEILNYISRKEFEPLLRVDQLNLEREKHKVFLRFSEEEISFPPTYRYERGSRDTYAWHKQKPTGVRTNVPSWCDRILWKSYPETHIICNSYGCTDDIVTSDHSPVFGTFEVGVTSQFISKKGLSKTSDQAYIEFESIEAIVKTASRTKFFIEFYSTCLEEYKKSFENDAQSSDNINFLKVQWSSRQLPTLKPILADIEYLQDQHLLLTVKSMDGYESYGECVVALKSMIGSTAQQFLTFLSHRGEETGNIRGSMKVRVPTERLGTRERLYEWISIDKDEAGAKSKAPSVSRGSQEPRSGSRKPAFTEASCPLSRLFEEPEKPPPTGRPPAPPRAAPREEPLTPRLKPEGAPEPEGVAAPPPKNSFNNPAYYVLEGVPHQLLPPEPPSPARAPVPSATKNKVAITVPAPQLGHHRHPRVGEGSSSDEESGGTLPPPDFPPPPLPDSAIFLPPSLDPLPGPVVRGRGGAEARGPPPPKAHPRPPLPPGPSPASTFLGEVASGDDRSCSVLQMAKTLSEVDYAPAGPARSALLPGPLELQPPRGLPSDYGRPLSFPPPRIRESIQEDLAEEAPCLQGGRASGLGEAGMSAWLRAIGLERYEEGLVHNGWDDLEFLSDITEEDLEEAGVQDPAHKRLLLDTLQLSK

KG1 cells = experiment: Apoptosis of KG1 cells (Western blot, Annexin V/PI FACS); type: cell-based, human
Experimental: (§1) (A) SHIP1 expression in KG1 and MG63 cells was determined by Western blotting (top). Membranes were reprobed with antibodies against b-actin to confirm equal loading (lower panel). One representative blot of 2 individual experiments is shown. (B) KG1 and MG63 cells were plated in duplicate in 96 well plates, and treated for 36 hours with increasing concentrations of the 3α-aminocholestane. Cell viability was assessed by MTT assay. Results represent the mean of three individual experiments. (C) KG1 cells were treated with increasing concentrations of 3α-aminocholestane for 36 hours and hallmarks of apoptosis were identified in cell lysates by Western Blot analysis. Membranes were probed with antibodies against PARP and cleaved PARP (cPARP, upper panel) and cleaved Caspase 3 (cCaspase 3, middle panel). Equal protein loading was confirmed by reprobing the blots with anti-b-actin antibodies (lower panel). A representative example of 2 independent experiments is shown. (D) KG1 cells were treated with increasing concentrations of 3α-aminocholestane, and the percentage of AnnexinV and PI positive cells was determined by FACS analysis. A representative example of 2 individual experiments is shown.
It was a concern that SHIP1 inhibitors might potentially enhance the survival and growth of blood cell cancers. Conversely, as discussed above, SHIP1 inhibition could also […] Akt activation and therefore might also antagonize the survival of malignant blood cells. The two possibilities were tested by treating the AML cell line (KG-1) that expresses SHIP1 (FIG. 17a) with 3α-aminocholestane. […]
Preparation of cell lysates and Western blotting: Cells were counted, centrifuged and resuspended in Laemmli sample buffer. […]
Annexin V staining Annexin V/Propidium Iodide (PI) staining was performed using the Annexin V-FITC apoptosis detection kit from BD Pharmingen (Sharon, Mass.) per the manufacturer's instructions. […] Fluorescence was determined by flow cytometry (LSR II, Becton Dickinson Medical Systems, Sharon, Mass.).

[1] = mouse, in vivo
MG63 cells = experiment: MTT cell viability assay, MG63; type: cell-based; settings: MG63, lacks SHIP1 expression, 36 hours
Experimental: as §1, with “Membranes were probed with antibodies against PARP and cleaved PARP (cPARP, upper panel) and cleaved Caspase 3 (cCaspase 3, middle panel). Equal protein loading was confirmed by reprobing the blots with anti-b-actin antibodies (lower panel). A representative example of 2 independent experiments is shown.” left out, “A representative example of 2 individual experiments is shown.” left out
Cell viability assay: Cells were treated in duplicate for 36 hours with increasing concentrations of 3α-aminocholestane or vehicle. […] Formed crystals were dissolved in dimethyl sulfoxide and optical density (OD) was measured at 570 nm. The OD of compound treated cells was divided by the OD of their vehicle control, and the viability was expressed as a percentage of untreated cells. Results are expressed as mean±SEM of three individual experiments.

Question: Which results are given for CC(C)CCC[C@@H](C)[C@H]1CC[C@H]2[C@@H]3CC[C@H]4C[C@H](N)CC[C@]4(C)[C@H]3CC[C@]12C [NSC23922, (3R,5S,8R,9S,10S,13R,14S,17R)-10,13-dimethyl-17-[(2R)-6-methylheptan-2-yl]-2,3,4,5,6,7,8,9,11,12,14,15,16,17-tetradecahydro-1H-cyclopenta[a]phenanthren-3-amine]?
Answer: inhibition of SHIP2 activity (SHIP2): fails to inhibit; frequency of AnnexinV+ cells (KG1 cells; KG1, 36 hours, FACS): increased frequency; cleavage of PARP and Caspase 3 (KG1 cells; KG1, 36 hours, Western blot): increased cleavage; activation of Akt/PKB (KG1 cells; KG1, Western blot): decreased activation; pulmonary myeloid infiltration and lung consolidation [1]: absence of the pulmonary myeloid infiltration and lung consolidation; growth and survival of cells (MTT viability) (MG63 cells): not in cells that lacks SHIP1 expression
